Tests used:
[1] = system: P. aeruginosa; details: disc diffusion and broth dilution methods; cited from earlier work
[2] = system: Pseudomonas aeruginosa; assay: Kill-time test (exposure time, survivors, log and percent reduction in CFU); assay type: cell-based; details: Linalool 0.75% alone, at one minute
Protocol: (§1) The following experiments were performed with a number of topical preparations to test the efficacy of each preparation against both gram negative and gram positive bacteria. The data is presented in tables showing the organism which the preparation was tested against, the exposure time, the number of survivors, the log reduction and the percent reduction in CFUs (Colony Forming Units).
(§2) Experiments were performed with tea tree oil, manuka oil, alpha-terpineol, and linalool in the EyeCI vehicle. The EyeCL vehicle (Advanced Vision Research, Woburn, Mass.) and OcuSoft Lid Scrub Foaming Eyelid Cleanser (CYNACON/OCUSOFT, Rosenberg, Tex.) were tested as controls.

[3] = system: Staphylococcus aureus; assay: as above; assay type: cell-based; details: at 1 minute
Protocol: as §1, §2

Row | Compound | activity against P. aeruginosa [1] | log of Pseudomonas killing [2] | log reduction in S. aureus killing ([3]; 0.75% linalool alone) | log reduction in S. aureus ([3]; 0.85% linalool)
1 | CC1=CCC(C(C)(C)O)CC1 (stereo not drawn) [alpha-terpineol] | inactive | – | – | –
2 | C=CC(C)(O)CCC=C(C)C (centres unmarked) [linalool] | inactive | greater than 1 log | ~1 log | > 1 log
